Laboratory results as given in US11459333B2, “Substituted pyrrolo[2,3-d]pyrimidines as JAK inhibitors” (Vimalan Biosciences, Inc., priority 2019, dated 2022).

How the values were obtained:
Assay type in all cases: biochemical
TYK2 = TYK2 (Homo sapiens (Human), UniProt P29597); assay: JAK/TYK2 Assay (Kinase Glo luminescence), TYK2; details: 9 nM enzyme, 2 uM ATP, 30 uM IRS-1, 1 hr
Method: (§1) 10 mM test compound stock or 1 mM control compound stock (tofocitinib, ruxolitinib or staurosporine) in DMSO was diluted to 0.4 mM in DMSO. A 3-fold series dilution was then performed in DMSO to generate 10 different compound concentrations. The assay was carried out in 384-well white plate. 0.5 uL of 40× compound DMSO solution at different concentrations was mixed with 10 uL 2× enzyme prepared in reaction buffer (20 mM HEPES, 10 mM MgCl2, 0.01% Tween, 1 mM DTT, pH 7.5). 10 uL 2× substrate mixture prepared in reaction buffer was then added to start the reaction. A short spin was done to settle down all solutions to the bottom of the plate. Final concentrations of test compound in the reaction mixture were 10000, 3333, 1111, 370, 123, 41.2, 13.7, 4.57, 1.52 and 0.51 nM. Concentrations of control compound were ten times less. Enzymatic reaction was conducted at 25° C. for 1-2 hours. 10 uL of Kinase Glo Reagents was added to stop the reaction and generate the luminescent signal which was measured using Envision. Luminescence signal was inversely related to kinase activity. […] The mixture without any compound was the positive control.

JAK2 = JAK2 (Homo sapiens (Human), UniProt O60674); assay: JAK/TYK2 Assay (Kinase Glo luminescence), JAK2; details: 0.8 nM enzyme, 2 uM ATP, 4 uM pEY, 1 hr
Sequence of JAK2 (O60674 whole entry, species assumed): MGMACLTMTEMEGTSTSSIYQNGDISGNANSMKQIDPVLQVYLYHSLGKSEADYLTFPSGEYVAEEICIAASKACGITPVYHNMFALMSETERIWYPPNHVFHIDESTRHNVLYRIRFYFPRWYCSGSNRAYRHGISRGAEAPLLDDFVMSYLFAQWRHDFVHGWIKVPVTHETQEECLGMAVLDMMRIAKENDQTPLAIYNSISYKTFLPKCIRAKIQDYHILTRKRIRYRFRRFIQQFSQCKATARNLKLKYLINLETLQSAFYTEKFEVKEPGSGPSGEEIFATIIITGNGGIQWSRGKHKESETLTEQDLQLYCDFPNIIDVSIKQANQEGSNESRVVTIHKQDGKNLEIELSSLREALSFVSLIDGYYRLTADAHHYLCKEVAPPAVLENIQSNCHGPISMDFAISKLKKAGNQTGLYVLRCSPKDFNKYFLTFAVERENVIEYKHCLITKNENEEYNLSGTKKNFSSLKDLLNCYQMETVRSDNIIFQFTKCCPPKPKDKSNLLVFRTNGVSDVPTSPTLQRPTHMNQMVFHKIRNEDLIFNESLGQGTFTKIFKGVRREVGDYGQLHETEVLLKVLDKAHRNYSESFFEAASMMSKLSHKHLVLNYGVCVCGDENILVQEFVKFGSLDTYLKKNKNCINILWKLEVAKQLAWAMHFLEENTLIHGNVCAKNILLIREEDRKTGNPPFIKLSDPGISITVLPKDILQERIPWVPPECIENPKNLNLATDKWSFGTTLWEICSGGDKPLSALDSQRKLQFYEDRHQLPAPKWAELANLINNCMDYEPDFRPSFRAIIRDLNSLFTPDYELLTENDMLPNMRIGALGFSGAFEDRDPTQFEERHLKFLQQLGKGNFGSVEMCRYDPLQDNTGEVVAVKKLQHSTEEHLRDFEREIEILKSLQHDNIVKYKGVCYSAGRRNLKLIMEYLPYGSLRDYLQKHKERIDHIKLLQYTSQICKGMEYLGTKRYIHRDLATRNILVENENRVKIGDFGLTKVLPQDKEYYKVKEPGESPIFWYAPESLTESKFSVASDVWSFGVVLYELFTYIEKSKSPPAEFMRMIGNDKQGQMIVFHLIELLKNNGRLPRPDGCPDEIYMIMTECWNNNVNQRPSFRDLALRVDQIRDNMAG
Method: as §1

JAK3 = JAK3 (Homo sapiens (Human), UniProt P52333); assay: JAK/TYK2 Assay (Kinase Glo luminescence), JAK3; details: 1.5 nM enzyme, 2 uM ATP, 4 uM pEY, 1 hr
Sequence of JAK3 (P52333 whole entry, species assumed): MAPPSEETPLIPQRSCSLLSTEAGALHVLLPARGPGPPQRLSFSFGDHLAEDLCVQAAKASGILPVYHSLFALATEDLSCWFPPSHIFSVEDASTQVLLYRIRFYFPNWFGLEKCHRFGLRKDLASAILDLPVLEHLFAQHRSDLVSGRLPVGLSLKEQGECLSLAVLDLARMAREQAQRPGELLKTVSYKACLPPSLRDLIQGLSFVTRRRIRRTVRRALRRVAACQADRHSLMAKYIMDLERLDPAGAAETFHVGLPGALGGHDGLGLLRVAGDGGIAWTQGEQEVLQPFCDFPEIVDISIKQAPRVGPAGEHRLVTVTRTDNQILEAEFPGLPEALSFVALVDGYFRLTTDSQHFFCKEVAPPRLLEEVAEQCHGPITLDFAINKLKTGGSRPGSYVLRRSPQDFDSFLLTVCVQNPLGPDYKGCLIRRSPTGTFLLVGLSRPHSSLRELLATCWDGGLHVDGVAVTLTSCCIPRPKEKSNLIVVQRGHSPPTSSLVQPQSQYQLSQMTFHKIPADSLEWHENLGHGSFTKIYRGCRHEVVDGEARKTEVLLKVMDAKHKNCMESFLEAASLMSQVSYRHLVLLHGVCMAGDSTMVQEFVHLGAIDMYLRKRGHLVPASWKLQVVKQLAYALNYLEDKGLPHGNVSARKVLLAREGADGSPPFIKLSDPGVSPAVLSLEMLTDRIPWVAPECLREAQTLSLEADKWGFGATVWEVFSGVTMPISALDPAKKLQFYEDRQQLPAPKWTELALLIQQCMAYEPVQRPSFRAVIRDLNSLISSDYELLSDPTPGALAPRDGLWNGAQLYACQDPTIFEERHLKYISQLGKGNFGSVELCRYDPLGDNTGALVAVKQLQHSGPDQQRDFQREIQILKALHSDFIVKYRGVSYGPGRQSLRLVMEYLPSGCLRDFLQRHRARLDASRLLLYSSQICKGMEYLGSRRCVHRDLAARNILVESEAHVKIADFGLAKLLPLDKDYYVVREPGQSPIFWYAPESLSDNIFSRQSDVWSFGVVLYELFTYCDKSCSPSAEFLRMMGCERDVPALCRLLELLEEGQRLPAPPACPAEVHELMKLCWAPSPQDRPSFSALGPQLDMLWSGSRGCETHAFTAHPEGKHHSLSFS
Method: as §1

JAK1 = JAK1 (Homo sapiens (Human), UniProt P23458); assay: JAK/TYK2 Assay (Kinase Glo luminescence), JAK1; details: 7.5 nM enzyme, 2 uM ATP, 30 uM IRS-1, 1 hr
Sequence of JAK1 (P23458 whole entry, species assumed): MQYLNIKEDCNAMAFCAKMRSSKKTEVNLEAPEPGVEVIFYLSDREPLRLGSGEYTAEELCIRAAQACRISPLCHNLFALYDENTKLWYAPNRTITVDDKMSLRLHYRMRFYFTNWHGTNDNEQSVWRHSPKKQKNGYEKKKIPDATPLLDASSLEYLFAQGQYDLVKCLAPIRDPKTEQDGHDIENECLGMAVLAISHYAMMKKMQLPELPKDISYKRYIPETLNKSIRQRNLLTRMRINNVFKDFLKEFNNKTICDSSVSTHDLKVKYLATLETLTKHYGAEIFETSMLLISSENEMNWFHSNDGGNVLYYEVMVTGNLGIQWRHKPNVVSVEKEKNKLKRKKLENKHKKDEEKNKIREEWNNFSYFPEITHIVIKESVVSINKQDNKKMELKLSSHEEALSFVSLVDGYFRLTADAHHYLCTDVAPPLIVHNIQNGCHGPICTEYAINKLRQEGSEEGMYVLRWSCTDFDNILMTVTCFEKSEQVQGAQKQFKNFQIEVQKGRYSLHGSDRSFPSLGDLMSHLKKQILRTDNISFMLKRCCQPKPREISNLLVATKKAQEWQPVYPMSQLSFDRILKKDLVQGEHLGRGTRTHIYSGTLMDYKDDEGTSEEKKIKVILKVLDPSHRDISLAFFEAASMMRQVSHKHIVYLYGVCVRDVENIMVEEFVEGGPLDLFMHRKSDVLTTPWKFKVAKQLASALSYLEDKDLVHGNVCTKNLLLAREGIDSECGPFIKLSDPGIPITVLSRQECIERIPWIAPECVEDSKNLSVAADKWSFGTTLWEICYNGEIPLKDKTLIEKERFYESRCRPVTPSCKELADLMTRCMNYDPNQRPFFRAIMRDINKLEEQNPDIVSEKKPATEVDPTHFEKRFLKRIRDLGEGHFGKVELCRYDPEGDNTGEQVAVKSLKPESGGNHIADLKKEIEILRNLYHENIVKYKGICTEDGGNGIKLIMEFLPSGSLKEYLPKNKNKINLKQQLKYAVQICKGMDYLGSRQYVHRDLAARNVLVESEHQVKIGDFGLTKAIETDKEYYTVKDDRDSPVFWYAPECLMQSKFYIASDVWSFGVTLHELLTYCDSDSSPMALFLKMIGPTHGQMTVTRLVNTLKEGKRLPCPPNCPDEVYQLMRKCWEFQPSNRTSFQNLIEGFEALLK
Method: as §1

Sequence of TYK2 (P29597 whole entry, species assumed): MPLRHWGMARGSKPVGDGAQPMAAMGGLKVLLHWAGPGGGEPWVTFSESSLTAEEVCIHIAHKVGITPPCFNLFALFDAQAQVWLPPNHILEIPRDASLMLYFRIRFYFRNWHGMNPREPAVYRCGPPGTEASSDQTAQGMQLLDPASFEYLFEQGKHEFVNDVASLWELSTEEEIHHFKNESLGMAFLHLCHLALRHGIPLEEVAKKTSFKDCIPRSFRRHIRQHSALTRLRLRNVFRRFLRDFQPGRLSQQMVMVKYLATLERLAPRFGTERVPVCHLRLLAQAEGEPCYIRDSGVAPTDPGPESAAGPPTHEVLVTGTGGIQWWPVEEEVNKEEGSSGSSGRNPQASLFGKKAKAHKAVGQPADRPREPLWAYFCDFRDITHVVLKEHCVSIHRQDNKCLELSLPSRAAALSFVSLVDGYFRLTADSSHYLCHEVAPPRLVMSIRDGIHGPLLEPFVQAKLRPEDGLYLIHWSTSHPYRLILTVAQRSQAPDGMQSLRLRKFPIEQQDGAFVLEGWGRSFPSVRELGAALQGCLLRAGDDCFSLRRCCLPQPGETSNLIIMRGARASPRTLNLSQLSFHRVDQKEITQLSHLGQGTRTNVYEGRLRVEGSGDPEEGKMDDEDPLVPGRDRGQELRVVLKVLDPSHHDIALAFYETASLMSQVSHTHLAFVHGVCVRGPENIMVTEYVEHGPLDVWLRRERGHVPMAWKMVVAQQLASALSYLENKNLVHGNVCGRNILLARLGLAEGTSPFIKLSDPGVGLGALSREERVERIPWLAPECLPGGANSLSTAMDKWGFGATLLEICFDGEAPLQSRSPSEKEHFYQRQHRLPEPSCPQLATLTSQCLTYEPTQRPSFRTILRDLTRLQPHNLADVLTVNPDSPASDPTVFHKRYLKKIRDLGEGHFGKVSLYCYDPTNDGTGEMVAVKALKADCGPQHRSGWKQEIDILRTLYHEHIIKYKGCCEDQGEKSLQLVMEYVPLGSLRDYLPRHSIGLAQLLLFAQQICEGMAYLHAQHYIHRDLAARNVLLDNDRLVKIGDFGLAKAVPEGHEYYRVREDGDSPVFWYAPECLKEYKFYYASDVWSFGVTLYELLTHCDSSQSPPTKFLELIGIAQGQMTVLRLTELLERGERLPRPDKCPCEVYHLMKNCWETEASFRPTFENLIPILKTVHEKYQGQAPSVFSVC

Structure (SMILES) | IC50 (TYK2) [nM] | IC50 (JAK2) [nM] | IC50 (JAK3) [nM] | IC50 (JAK1) [nM]
CC[C@H](Cn1ccc2cnc(Nc3cnn(CC(=O)O[C@@H]4C[C@@H](C(=O)OC)N(C)C4)c3)nc21)C(C)C [Compound 131, methyl (2S,4R)-4-(2-(4-((7-((S)-2-ethyl-3-methylbutyl)-7H-pyrrolo[2,3-d]pyrimidin-2-yl)amino)-1H-pyrazol-1-yl)acetoxy)-1-methylpyrrolidine-2-carboxylate] | < 100 | < 100 | < 100 | < 100
CC[C@H](Cn1ccc2cnc(Nc3cnn(CC(=O)O[C@@H]4C[C@@H](C(=O)O)N(C)C4)c3)nc21)C(C)C [Compound 135, (2S,4R)-4-(2-(4-((7-((S)-2-ethyl-3-methylbutyl)-7H-pyrrolo[2,3-d]pyrimidin-2-yl)amino)-1H-pyrazol-1-yl)acetoxy)-1-methylpyrrolidine-2-carboxylic acid] | 100 to 1000 | 100 to 1000 |  | 100 to 1000
CCOC(=O)[C@@H]1C[C@@H](OC(=O)Cn2cc(Nc3ncc4ccn(C[C@@H](CC)C(C)C)c4n3)cn2)CN1C [Compound 133, ethyl (2S,4R)-4-(2-(4-((7-((S)-2-ethyl-3-methylbutyl)-7H-pyrrolo[2,3-d]pyrimidin-2-yl)amino)-1H-pyrazol-1-yl)acetoxy)-1-methylpyrrolidine-2-carboxylate] | < 100 | < 100 | < 100 | < 100
CC[C@H](Cn1ccc2cnc(Nc3cnn(CC(=O)O[C@@H]4C[C@@H](C(=O)OC(C)C)N(C)C4)c3)nc21)C(C)C [Compound 134, isopropyl (2S,4R)-4-(2-(4-((7-((S)-2-ethyl-3-methylbutyl)-7H-pyrrolo[2,3-d]pyrimidin-2-yl)amino)-1H-pyrazol-1-yl)acetoxy)-1-methylpyrrolidine-2-carboxylate] | 100 to 1000 | 100 to 1000 | 100 to 1000 | < 100
